Source: a melting point compilation (Tetko et al.; mined from patent text by program, amines drawn as free bases though some values may be those of a salt)

melting point [°C] | SMILES
190 to 191 | CS(=O)(=O)Nc1ccc(C(=O)C2CCN(CCc3cn4ccccc4n3)CC2)cc1
126 to 127 | CCNC(=O)[C@H](C)C[C@H](O)[C@H](CC1CCCCC1)NC(=O)OC(C)(C)C
192 to 193 | COC(=O)c1ccccc1S(=O)(=O)NC(=O)Nc1ncc(C)n(C)c1=O
152 to 155 | N=C(N)NCCCCOc1ccc2c(c1)CC(CCC(=O)O)C(=O)N2 (stereo not drawn)
68 to 70 | CCCCc1nnc(-c2ccc([N+](=O)[O-])cc2)o1
117 to 120 | CCCCOC(=O)c1c(N)c2cccnc2n(CC)c1=O
45 to 47 | OC(CCCCCCCCCOCc1ccccc1)c1ccc(OCc2ccccc2)c(OCc2ccccc2)c1 (stereo not drawn)
180 to 182 | C#CC[C@H](c1nc2cccnc2c(=O)n1Nc1ccccc1)N(CCCN)C(=O)c1cc(F)c(F)c(F)c1F
97 to 98 | C#Cc1c(Cl)cccc1Cl
295 to 299 | Cn1cc(C(N)=O)c(=O)c2cc(F)ccc21
149 to 153 | CCn1c(CC(=O)O)ccc1C(=O)c1ccc(Cl)cc1
178 to 181 | CC(C)(C)C(=O)NS(=O)(=O)c1cccc([N+](=O)[O-])c1
156 to 161 | C[C@@H]1Cc2ccsc2[C@H](c2cccs2)N1CCNS(=O)(=O)c1ccc(N)cc1 (relative stereo)
123 to 125 | Cc1cc2c(c(C)c1O)C(C)CN2C(=O)C(C)C (stereo not drawn)
58 to 61 | CCOC(=O)c1ccc([N+](=O)[O-])c(O)c1Br
110 to 113 | COc1ccc(C(=O)c2cccc([N+](=O)[O-])c2C)cc1
238 to 240 | Cc1cc(=O)c2cc(NC(=O)C(=O)O)ccc2s1
163 to 164 | N[C@H]1CC[C@@H](n2ccc(-c3ccc(F)cc3)c2-c2ccncc2)CC1
118 to 120 | Cc1sc(I)c(C)c1CO
165 to 166 | CSC(=Cc1ccc(N)cc1)S(C)=O (stereo not drawn)
65 to 67 | OC(CNCCCCCCOCCCCc1ccccc1)c1cc(OCc2ccccc2)cc(OCc2ccccc2)c1 (stereo not drawn)
233 to 236 | CN(C)c1ccc2nnc(-c3ncc([N+](=O)[O-])n3C)n2n1
191 | Brc1cn2ccnc2c(N2CCOCC2)n1
185 to 187 | CCC12CC(O)C(O)(c3ccccc3)CC1CC(O)c1cc(O)ccc12 (stereo not drawn)
191 to 194 | CCOC(=O)c1c2n(c3c(Cl)c(F)c(F)cc3c1=O)C(C)S2 (stereo not drawn)

melting point [°C] | SMILES
251 | CC(=O)Nc1scc(C(C)(C)C)c1C(N)=O
143 to 145 | CC(=O)OCCn1c([N+](=O)[O-])cnc1C
179 to 182 | Cc1noc(NS(=O)(=O)c2cc(Cl)c(Cl)cc2Cl)c1Br
126 to 128 | NC(=O)N(O)CCNC(=O)c1cccc(Oc2cccc(C(F)(F)F)c2)c1
181 to 183 | CC1(C)Nc2ccccc2-c2c(N)cnn21
114 to 119 | Cc1ncccc1Oc1ccc(C(=N)Nc2cc(Cl)cc(NC(=O)C=Cc3ccccc3C(F)(F)F)c2)cc1
230 to 231 | Cc1nc(-c2cccnc2)sc1-c1ccnc(Nc2ccc(N3CCOCC3)c(Cl)c2)n1
63 | CCOC(=O)C(=CNc1ccc(OC)c(F)c1)C(=O)OCC
> 300 | N#Cc1cnc2cc3ccc(O)cc3cc2c1Nc1ccc(Cl)cc1Cl
107 | O=C(O)/C=C/c1cccc(OS(=O)(=O)C(F)(F)F)c1
138 to 140 | COc1cc2nc(N3CCN(C(=S)Nc4ccccc4)CC3)nc(N)c2cc1OC
221 to 222 | O=C(O)C=C1SC(=Nc2ccc(Cl)c(Cl)c2)N(c2ccc(Cl)c(Cl)c2)C1=O
147 to 149 | O=C(Nc1ccc2[nH]ncc2c1)N[C@@H](c1ccccc1)[C@@H]1CCCCN1
277 to 279 | CCOC(=O)C1C(=O)c2cc(F)ccc2N=C1c1ccccc1 (stereo not drawn)
155 to 157 | CCCCCCCCCCS(=O)(=O)c1ccc(O)c(C(=O)Nc2ccc(C(F)(F)F)cc2)c1
126 to 127 | COc1ccc(-c2cc3ncccc3c(Cl)n2)cc1
69.3 to 71 | Cc1cc(=O)c(OCc2ccccc2)c(C(=O)NC2CCC2)o1
45 to 47 | CCCCCCCCCCCCCCCC1=CC=CC(=O)C12CO2 (stereo not drawn)
145 to 146 | CCN(C(=O)NS(=O)(=O)c1ccccc1)c1ccc(Cl)cc1
179 to 180 | Nc1nc2[nH]c(CCCCc3ccc(C(=O)N[C@@H](CCC(=O)O)C(=O)O)s3)cc2c(=O)[nH]1
69 to 71 | CN(C)CCCCCCSc1ncccc1C(=O)c1cccs1
192 to 193 | Cc1ccn(-c2ccc(C(=O)N3Cc4cccn4Cc4ccccc43)c(F)c2)n1
219 to 220 | O=C(O)[C@@H]1CN[C@H](C(=O)O)C1
134 to 135 | CCOC(=O)c1c(-c2ccccc2C)c2cc3c(cc2n(C)c1=O)CCC3
245 to 247 | COc1cc2c(cc1Nc1ncc(Cl)c(Nc3ccccc3OCC#N)n1)CCOC(=O)N2C

melting point [°C] | SMILES
120 to 121 | CC1(C)C(=O)OC2=C1CC(OS(C)(=O)=O)C=C2 (stereo not drawn)
171 to 173 | COC(=O)[C@H]1C[C@H](C(=O)O)Nc2cc(Br)cc(Br)c21 (relative stereo)
170 to 171 | c1ccc2c(c1)Cc1ccccc1N2
184 to 190 | CN1C(=O)CN(NC(=O)CNC(=O)OCc2ccccc2)C(c2ccccc2)c2cc(Cl)ccc21 (stereo not drawn)
33 to 35 | COC(=O)CCC1CCCCCCCCCCC1=O (stereo not drawn)
143 to 144 | COC(=O)c1ccc(CC(=O)c2cc(OC)c3c(c2)C(C)(C)CCC3(C)C)cc1
199 to 201 | CC(C)(C)OC(=O)NCCCC(=O)NCc1cccc2c1CN(C1CCC(=O)NC1=O)C2=O (stereo not drawn)
255 to 258 | O=C(O)c1cc([N+](=O)[O-])ccc1-c1ccc([N+](=O)[O-])cc1C(=O)O
148 to 150 | CCCCc1ncc(CC(Cc2ccccc2)C(=O)O)n1Cc1ccccc1 (stereo not drawn)
153 | COC(=O)c1ccc2cc([C@H]3OC[C@@H](S[C@H](C)[C@](O)(Cn4cncn4)c4ccc(F)cc4F)CO3)ccc2c1
178 to 180 | CN(CCOc1ccc(C=C2SC(=O)NC2=O)cc1)C(=O)c1ccccc1
92 to 93 | O=c1oc2cccnc2n1CCN1CCN(c2cccc(C(F)(F)F)c2)CC1
254 to 255 | COc1cc(C#N)cc(-c2ccc3c(c2)C(C)(C)OC(=O)N3)c1
235 to 237 | CCCCc1oc2ccccc2c1-c1ncc(-c2ccc3c(Br)c(OCc4nnn[nH]4)ccc3c2)o1
202 to 203 | CC(=O)OC1Cc2ccc(F)cc2/C1=C/C(N)=O (stereo not drawn)
219 to 220 | NC(=O)Cc1ccc(-c2csc(N=C(N)N)n2)o1
74 to 75 | CCCCn1c(C)c(N)c(=O)n(C)c1=O
75 to 78 | COc1ccc(CCN(C)CCC2CN(C)C(=S)c3cccnc3O2)cc1 (stereo not drawn)
141 to 142 | CN(C)C(=O)c1ccc(C=CC(=O)c2cccc(OCc3ccc4ccc(Cl)cc4n3)c2)o1
167 to 169 | N#Cc1ccc(N2CCC(c3ccccc3)CC2)cc1
123 to 125 | CC(C)(C)OC(=O)NCC1(CC(N)=O)CCCCC1
138 to 140 | Cc1cc(-n2ccnc2)ccc1[N+](=O)[O-]
81 to 83 | CCCc1nn(CC)c(C(N)=O)c1N
109 to 111 | CC(=O)NCC1CN(c2ncccc2Cl)C1
98.5 to 102 | Cc1ccccc1C(=O)N(c1ccccc1)c1ccc(OCCN(C)C)cc1

melting point [°C] | SMILES
144 to 146 | COC(=O)c1cc(-c2ccncc2)ccc1C(=O)N1CCN(C(=O)OC(C)(C)C)CC1
45 to 47 | CCCCCCCCC#Cc1ccc2sc(C=O)cc2c1
254 to 256 | COc1cc2c(Nc3ccc(Cl)cc3F)ncnc2cc1OCCCC(=O)N1CCCC1
124 to 126 | CCOC(=O)[C@H](CCc1ccccc1)N[C@@H](C)C(=O)N1CC2(C[C@H]1C(=O)O)SCCS2
98 | CCCCOc1ccc(S(=O)(=O)C2(C(=O)NO)CCN(CC)CC2)cc1
178 to 180 | COc1cc2c(c(OC)c1OC)C(=O)O[C@H]2CO
93 to 95 | c1cc(N2CCOCC2)ccn1
80 to 82 | CCCc1c(OCC2Cc3cc(CC(=O)OC)cc(F)c3O2)ccc(C(C)=O)c1O (stereo not drawn)
162 to 164 | COc1ccc2nc(Cl)cc(C=CN(C)C)c2c1
57 to 67 | COc1ccc(C(O)(Cc2ccncc2)c2cccs2)cc1OC1CCCC1 (stereo not drawn)
112 to 113 | CC(C)(C)OC1CC(n2cnc3c(Cl)ncnc32)C2CC12COCc1ccccc1 (stereo not drawn)
250 to 252 | Clc1ccc2c(c1)Nc1ncccc1N=C2c1ccccc1
131 to 133 | Cn1nnc(-c2cc3c(Oc4ccc(Cl)cc4)cncc3s2)n1
83 to 85 | CCCCc1nc(O)cc(CC(=O)OC)n1
165 to 168 | O=C(NCc1ccccc1)N1C(=O)[C@H](O)[C@@H]1c1ccccc1
122 to 123 | C/C(=C\c1ccc(C2(C)OCCO2)cc1)c1ccc2c(c1)C(C)(C)CCC2(C)C
49.7 to 50.9 | C[C@@H]1CC(=O)O[C@H](CCc2ccccc2)O1
127 to 129 | Nc1ccc(Sc2ccccc2)cn1
113 to 116 | COC(=O)C1CCC2C3CCC4CC(O)CCC4(C)C3C(N)CC12C (stereo not drawn)
187 | COc1cc(C)cc(OC)c1-c1ccccc1C(=O)O
135 to 139 | COc1ccccc1C1(CC(=O)O)C(=O)Nc2ccc(Cl)cc21 (stereo not drawn)
97.8 | CC(=O)Nc1cc(C(=O)c2ccccc2)ccc1[N+](=O)[O-]

SMILES | melting point [°C]
COc1ccc(-c2cc(=O)c3c(OC)cc(OC)c(C4=CCN(C)CC4)c3o2)c(OC)c1OC | 209 to 210
CN(C)C=Cc1nc2ccccc2c(=O)n1-c1ccccc1Cl | 228 to 230
O=Cc1cn(CCCCl)c2ccc(Cl)cc12 | 107 to 108
CNC(=O)Oc1ccc(NC(=O)C(Cl)(Cl)Cl)c(C)c1 | 185 to 187
O=S1(=O)c2cccc3cccc(c23)N1CCCCN1CC=C(c2c[nH]c3ccccc23)CC1 | 203
CNCC(O)c1ccc(F)cc1 (stereo not drawn) | 77 to 78.8
